Test results published in the supplement of paper PMC10307832.

Assays:
Assay in all cases: relative viability (nuclei count vs DMSO), 5 days (fraction); higher = more cells survive
201T = system: 201T
How it was run: (§1)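 Relative viability equals treated-well nuclei counts divided by vehicle-well nuclei counts. Counts came from 4× images of lung cancer cell lines grown in 1536-well plates for 5 days after pin-tool dosing on the day after seeding. Dosing used one drug alone or a fixed anchor-drug dose plus five library-drug doses (not always all listed) in √10 steps, and values are medians of duplicate plates.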

BEN = system: BEN
How it was run: as §1

COR-L 105 = system: COR-L 105
How it was run: as §1

COR-L23 = system: COR-L23
How it was run: as §1

EKVX = system: EKVX
How it was run: as §1

HCC-15 = system: HCC-15
How it was run: as §1

HCC-366 = system: HCC-366
How it was run: as §1

HCC-78 = system: HCC-78
How it was run: as §1

HCC-827 = system: HCC-827
How it was run: as §1

LC-2-ad = system: LC-2-ad
How it was run: as §1

LK-2 = system: LK-2
How it was run: as §1

LU99A = system: LU99A
How it was run: as §1

NCI-H1650 = system: NCI-H1650
How it was run: as §1

NCI-H1734 = system: NCI-H1734
How it was run: as §1

NCI-H1755 = system: NCI-H1755
How it was run: as §1

NCI-H1915 = system: NCI-H1915
How it was run: as §1

NCI-H1944 = system: NCI-H1944
How it was run: as §1

NCI-H2347 = system: NCI-H2347
How it was run: as §1

NCI-H441 = system: NCI-H441
How it was run: as §1

NCI-H661 = system: NCI-H661
How it was run: as §1

PC-3 [JPC-3] = system: PC-3 [JPC-3]
How it was run: as §1

RERF-LC-KJ = system: RERF-LC-KJ
How it was run: as §1

SW 900 = system: SW 900
How it was run: as §1

**Q.** `Oc1nc(-c2ccc(C(F)(F)F)cc2)nc2c1CSCC2` [XAV939] + Cc1nc(Nc2ncc(C(=O)Nc3c(C)cccc3Cl)s2)cc(N2CCN(CCO)CC2)n1 [Dasatinib] (partner 0.075 µM) was tested. Which relative viability (201T; first compound 0.08 µM) did it give?
**A.** 0.432

**Q.** What about the relative viability (201T; first compound 0.253 µM) of the same molecule?
**A.** 0.385

**Q.** What about the relative viability (201T; first compound 0.8 µM) of the same molecule?
**A.** 0.443

**Q.** What about the relative viability (201T; first compound 2.53 µM) of the same molecule?
**A.** 0.366

**Q.** And the relative viability (BEN; first compound 0.08 µM)?
**A.** 0.294

**Q.** What about the relative viability (BEN; first compound 0.253 µM) of the same molecule?
**A.** 0.299

**Q.** And the relative viability (BEN; first compound 0.8 µM)?
**A.** 0.32

**Q.** What about the relative viability (BEN; first compound 2.53 µM) of the same molecule?
**A.** 0.287

**Q.** And the relative viability (COR-L 105; first compound 0.08 µM)?
**A.** 0.348

**Q.** And the relative viability (COR-L 105; first compound 0.253 µM)?
**A.** 0.378

**Q.** What about the relative viability (COR-L 105; first compound 0.8 µM) of the same molecule?
**A.** 0.315

**Q.** What about the relative viability (COR-L 105; first compound 2.53 µM) of the same molecule?
**A.** 0.273

**Q.** What about the relative viability (COR-L23; first compound 0.08 µM) of the same molecule?
**A.** 0.461

**Q.** What about the relative viability (COR-L23; first compound 0.253 µM) of the same molecule?
**A.** 0.424

**Q.** What about the relative viability (COR-L23; first compound 0.8 µM) of the same molecule?
**A.** 0.505

**Q.** What about the relative viability (COR-L23; first compound 2.53 µM) of the same molecule?
**A.** 0.444

**Q.** And the relative viability (EKVX; first compound 0.08 µM)?
**A.** 0.444

**Q.** And the relative viability (EKVX; first compound 0.8 µM)?
**A.** 0.486

**Q.** What about the relative viability (EKVX; first compound 2.53 µM) of the same molecule?
**A.** 0.228

**Q.** And the relative viability (HCC-15; first compound 0.08 µM)?
**A.** 0.633

**Q.** What about the relative viability (HCC-15; first compound 0.253 µM) of the same molecule?
**A.** 0.463

**Q.** And the relative viability (HCC-15; first compound 0.8 µM)?
**A.** 0.601

**Q.** What about the relative viability (HCC-15; first compound 2.53 µM) of the same molecule?
**A.** 0.54

**Q.** What about the relative viability (HCC-366; first compound 0.08 µM) of the same molecule?
**A.** 0.598

**Q.** And the relative viability (HCC-366; first compound 0.253 µM)?
**A.** 0.589

**Q.** What about the relative viability (HCC-366; first compound 0.8 µM) of the same molecule?
**A.** 0.824

**Q.** And the relative viability (HCC-366; first compound 2.53 µM)?
**A.** 0.598

**Q.** What about the relative viability (HCC-78; first compound 0.08 µM) of the same molecule?
**A.** 0.37

**Q.** And the relative viability (HCC-78; first compound 0.253 µM)?
**A.** 0.398

**Q.** What about the relative viability (HCC-78; first compound 0.8 µM) of the same molecule?
**A.** 0.338

**Q.** And the relative viability (HCC-78; first compound 2.53 µM)?
**A.** 0.399

**Q.** And the relative viability (HCC-827; first compound 0.08 µM)?
**A.** 0.349

**Q.** What about the relative viability (HCC-827; first compound 0.253 µM) of the same molecule?
**A.** 0.297

**Q.** And the relative viability (HCC-827; first compound 0.8 µM)?
**A.** 0.393

**Q.** And the relative viability (HCC-827; first compound 2.53 µM)?
**A.** 0.437

**Q.** What about the relative viability (LC-2-ad; first compound 0.08 µM) of the same molecule?
**A.** 0.729

**Q.** What about the relative viability (LC-2-ad; first compound 0.253 µM) of the same molecule?
**A.** 0.446

**Q.** What about the relative viability (LC-2-ad; first compound 0.8 µM) of the same molecule?
**A.** 0.553

**Q.** And the relative viability (LC-2-ad; first compound 2.53 µM)?
**A.** 0.595

**Q.** And the relative viability (LK-2; first compound 0.08 µM)?
**A.** 0.262

**Q.** What about the relative viability (LK-2; first compound 0.253 µM) of the same molecule?
**A.** 0.31

**Q.** And the relative viability (LK-2; first compound 0.8 µM)?
**A.** 0.27

**Q.** And the relative viability (LK-2; first compound 2.53 µM)?
**A.** 0.399

**Q.** What about the relative viability (LU99A; first compound 0.08 µM) of the same molecule?
**A.** 0.503

**Q.** And the relative viability (LU99A; first compound 0.253 µM)?
**A.** 0.56

**Q.** What about the relative viability (LU99A; first compound 0.8 µM) of the same molecule?
**A.** 0.591

**Q.** And the relative viability (LU99A; first compound 2.53 µM)?
**A.** 0.457

**Q.** What about the relative viability (NCI-H1650; first compound 0.08 µM) of the same molecule?
**A.** 0.331

**Q.** What about the relative viability (NCI-H1650; first compound 0.253 µM) of the same molecule?
**A.** 0.323

**Q.** And the relative viability (NCI-H1650; first compound 0.8 µM)?
**A.** 0.263

**Q.** What about the relative viability (NCI-H1650; first compound 2.53 µM) of the same molecule?
**A.** 0.288

**Q.** And the relative viability (NCI-H1734; first compound 0.08 µM)?
**A.** 0.501

**Q.** And the relative viability (NCI-H1734; first compound 0.253 µM)?
**A.** 0.476

**Q.** What about the relative viability (NCI-H1734; first compound 0.8 µM) of the same molecule?
**A.** 0.419

**Q.** And the relative viability (NCI-H1734; first compound 2.53 µM)?
**A.** 0.357

**Q.** What about the relative viability (NCI-H1755; first compound 0.08 µM) of the same molecule?
**A.** 0.484

**Q.** What about the relative viability (NCI-H1755; first compound 0.253 µM) of the same molecule?
**A.** 0.324

**Q.** What about the relative viability (NCI-H1755; first compound 0.8 µM) of the same molecule?
**A.** 0.424

**Q.** And the relative viability (NCI-H1755; first compound 2.53 µM)?
**A.** 0.413

**Q.** What about the relative viability (NCI-H1915; first compound 0.08 µM) of the same molecule?
**A.** 0.353

**Q.** And the relative viability (NCI-H1915; first compound 0.253 µM)?
**A.** 0.214

**Q.** And the relative viability (NCI-H1915; first compound 0.8 µM)?
**A.** 0.311

**Q.** And the relative viability (NCI-H1915; first compound 2.53 µM)?
**A.** 0.298

**Q.** What about the relative viability (NCI-H1944; first compound 0.08 µM) of the same molecule?
**A.** 0.239

**Q.** And the relative viability (NCI-H1944; first compound 0.253 µM)?
**A.** 0.248

**Q.** What about the relative viability (NCI-H1944; first compound 0.8 µM) of the same molecule?
**A.** 0.226

**Q.** And the relative viability (NCI-H1944; first compound 2.53 µM)?
**A.** 0.218

**Q.** And the relative viability (NCI-H2347; first compound 0.08 µM)?
**A.** 0.258

**Q.** And the relative viability (NCI-H2347; first compound 2.53 µM)?
**A.** 0.335

**Q.** And the relative viability (NCI-H441; first compound 0.08 µM)?
**A.** 0.602

**Q.** And the relative viability (NCI-H441; first compound 0.253 µM)?
**A.** 0.66

**Q.** And the relative viability (NCI-H441; first compound 0.8 µM)?
**A.** 0.779

**Q.** And the relative viability (NCI-H441; first compound 2.53 µM)?
**A.** 0.536

**Q.** What about the relative viability (NCI-H661; first compound 0.08 µM) of the same molecule?
**A.** 1

**Q.** What about the relative viability (NCI-H661; first compound 0.253 µM) of the same molecule?
**A.** 0.851

**Q.** What about the relative viability (NCI-H661; first compound 0.8 µM) of the same molecule?
**A.** 0.812

**Q.** And the relative viability (NCI-H661; first compound 2.53 µM)?
**A.** 0.637

**Q.** And the relative viability (PC-3 [JPC-3]; first compound 0.08 µM)?
**A.** 1.09

**Q.** What about the relative viability (PC-3 [JPC-3]; first compound 0.253 µM) of the same molecule?
**A.** 0.899

**Q.** What about the relative viability (PC-3 [JPC-3]; first compound 0.8 µM) of the same molecule?
**A.** 0.938

**Q.** And the relative viability (PC-3 [JPC-3]; first compound 2.53 µM)?
**A.** 1.05

**Q.** And the relative viability (RERF-LC-KJ; first compound 0.08 µM)?
**A.** 0.77

**Q.** What about the relative viability (RERF-LC-KJ; first compound 0.253 µM) of the same molecule?
**A.** 0.643

**Q.** What about the relative viability (RERF-LC-KJ; first compound 0.8 µM) of the same molecule?
**A.** 0.55

**Q.** And the relative viability (RERF-LC-KJ; first compound 2.53 µM)?
**A.** 0.46

**Q.** And the relative viability (SW 900; first compound 0.08 µM)?
**A.** 0.545

**Q.** And the relative viability (SW 900; first compound 0.253 µM)?
**A.** 0.463

**Q.** And the relative viability (SW 900; first compound 0.8 µM)?
**A.** 0.51

**Q.** What about the relative viability (SW 900; first compound 2.53 µM) of the same molecule?
**A.** 0.435
